Test results reported in patent EP4471048A1, “PEPTIDE INHIBITORS OF INTERLEUKIN-23 RECEPTOR” (Zealand Pharma A/S, priority 2023, dated 2024).
Where a SMILES comes first, the peptide text is derived from it. Bridges are numbered along the chain shown (N, C = ends). [ ]: non-standard residue; d: D form. 2Nal = N[C@@H](Cc1ccc2ccccc2c1)C(=O)O; AEF = NCCOc1ccc(C[C@H](N)C(=O)O)cc1; 3Pal = N[C@@H](Cc1cccnc1)C(=O)O; αMeL = CC(C)C[C@](C)(N)C(=O)O; NMeK = CN[C@@H](CCCCN)C(=O)O; Dab = NCC[C@H](N)C(=O)O; βAla = NCCC(=O)O

Experiments:
[1] = Peptide stability in simulated intestinal fluid (SIF); format: in vitro ADME; details: 37 °C, porcine pancreatin; for remaining at 1 h, 10 µM / remaining at 4 h, 10 µM: pig; for remaining at 1 h, 10 µM: pH 6.8, 1 h; for remaining at 4 h, 10 µM / SIF (% remaining 4 h): pH 6.8, 4 h; for SIF (% remaining 4 h): 10 µM
Method: (§1) SGF was prepared by dissolving sodium chloride (0.2 g) in 50 mL of water. A volume of 0.7 mL of 10 M HCl was added to adjust the pH of the solution to 1.2 and the volume made up to 100 mL with water. […] SIF was prepared by dissolving monobasic potassium phosphate (0.68 g) in 50 mL of water and adjusting the pH to 6.8 with 1 M NaOH. The volume was subsequently made up to 100 mL with water. 200 mg porcine pancreatin (P1625, Sigma Aldrich) was gently dissolved into 20 mL preheated (37 °C) solution (10 g/L) immediately prior to the incubation.
(§2) The incubation was performed at 37 °C with gentle shaking. […] After the last timepoint, the sampling plate was mixed for 10 min on a shaking table and centrifuged 10 min at 2200 g. 70 µL resulting supernatant was diluted with 150 µL water, mixed and centrifugated before analysis by liquid chromatography high resolution mass spectrometry. […] Percent remaining at each timepoint was calculated relative to timepoint zero based on absolute peak areas.
Compounds with a SIF stability (after 4 h) above 70% are considered highly SIF stable.

human IL-23R = target: T1, human IL-23R (Homo sapiens, UniProt Q5VWK5); assay: biochemical; details: for Emax: read-out: % displacement (hIL-23R NIuc)
T1 sequence (Q5VWK5 22-629): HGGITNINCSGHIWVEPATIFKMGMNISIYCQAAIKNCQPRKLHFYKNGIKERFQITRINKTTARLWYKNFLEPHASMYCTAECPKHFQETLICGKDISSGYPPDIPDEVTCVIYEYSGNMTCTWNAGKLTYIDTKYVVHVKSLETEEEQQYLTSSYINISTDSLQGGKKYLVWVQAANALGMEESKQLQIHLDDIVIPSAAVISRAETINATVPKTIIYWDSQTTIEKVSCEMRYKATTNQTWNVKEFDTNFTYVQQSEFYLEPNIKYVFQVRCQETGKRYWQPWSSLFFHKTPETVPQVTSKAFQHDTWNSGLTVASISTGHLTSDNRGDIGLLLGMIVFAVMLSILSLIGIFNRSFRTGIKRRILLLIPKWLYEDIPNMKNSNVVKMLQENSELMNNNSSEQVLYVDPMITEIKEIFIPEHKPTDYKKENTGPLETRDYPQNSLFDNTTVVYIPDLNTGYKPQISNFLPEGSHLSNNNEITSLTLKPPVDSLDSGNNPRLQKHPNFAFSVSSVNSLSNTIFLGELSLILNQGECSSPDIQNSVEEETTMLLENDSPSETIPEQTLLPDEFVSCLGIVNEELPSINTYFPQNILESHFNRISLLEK
Outline: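 Membranes from HEK293 cells stably expressing Nluc-tagged human IL-23R were incubated 2 h at room temperature with test compound and a fluorophore-labelled tracer. After substrate addition, loss of BRET (TAMRA over luciferase emission) reported tracer displacement. A 4PL fit gave IC50 values.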

[2] = Peptide stability in simulated gastric fluid (SGF); format: in vitro ADME; details: pig, simulated gastric fluid (SGF) with porcine pepsin (3.2 g/L), pH 1.2, 10 µM, 37 °C, porcine pepsin; for remaining at 1 h, 10 µM: pH 1.2, 1 h, read-out: SGF (% remaining 1 h); for remaining at 4 h, 10 µM: pH 1.2, 4 h, read-out: SGF (% remaining 4 h)
Method: as §1, §2
Compounds with a SGF stability (after 4 h) above 70% are considered highly SGF stable. […] Table 3-4: SGF data

[3] = read-out: SIF (% remaining 4 h)
[4] = SAR tables, % peptide remaining, read-out: SIF (% after 4 h)

Row | Compound | remaining at 1 h, 10 µM [1] [%] | remaining at 4 h, 10 µM [1, 3] [%] | % displacement (hIL-23R NIuc) (human IL-23R) [%] | IC50 (human IL-23R) [pM] | remaining at 1 h, 10 µM [2] [%] | remaining at 4 h, 10 µM [2] [%] | remaining at 4 h, 10 µM [1, 4] [%] | Emax (human IL-23R) [%] | SIF (% remaining 4 h) [1] [%]
1 | CC[C@H](C)[C@@H]1NC(=O)[C@@H]2CCCCNC(=O)CC[C@@H](C(=O)N[C@@H](Cc3cn(C)cn3)C(=O)N[C@@H](Cc3cccnc3)C(=O)NC)NC(=O)[C@](C)(CC(C)C)NC(=O)[C@H](Cc3ccc4ccccc4c3)NC(=O)[C@H](Cc3ccc(OCCN)cc3)NC(=O)[C@H](CCC(=O)N2)NC(=O)[C@H](CCC(N)=O)NC(=O)[C@H](Cc2c[nH]c3ccccc23)NC(=O)[C@H](C(C)C)NC1=O [Compound 73, K(1c)(6c)^†IVWQE(6c)[Y(2-aminoethoxy)][2-Nal][2-Me-Leu]E(1c)[H(1-Me)][3-(3-Pyridyl)-Ala]-[NHMe]] | 11 | 0 | 102 | 120 | 100 | 99 |  |  | 
2 | CNC(=O)[C@H](Cc1cccnc1)NC(=O)[C@H](Cc1cccnc1)NC(=O)[C@@H]1CCC(=O)NCCCC[C@@H]2NC(=O)CC[C@H](NC(=O)[C@H](CCC(N)=O)NC(=O)[C@H](Cc3c[nH]c4ccccc34)NC(=O)CCNC2=O)C(=O)N[C@@H](Cc2ccc(OCCN)cc2)C(=O)N[C@@H](Cc2ccc3ccccc3c2)C(=O)N[C@@](C)(CC(C)C)C(=O)N1 [Compound 87, K(1c)(6c)^†[3-Aminopropanoyl]WQE(6c)[Y(2-aminoethoxy)][2-Nal][2-Me-Leu]E(1 c)[3-(3-Pyridyl)-Ala][3-(3-Pyridyl)-Ala]-[NHMe]] | 1 | 1 | 103 | 39 | 87 | 89 |  |  | 
3 | CC[C@H](C)[C@@H]1NC(=O)[C@@H]2CCCCNC(=O)CC[C@@H](C(=O)NCCc3cccnc3)NC(=O)[C@](C)(C(C)C)NC(=O)[C@H](Cc3ccc4ccccc4c3)NC(=O)[C@H](Cc3ccc(OCCN)cc3)NC(=O)[C@H](CCC(=O)N2)NC(=O)[C@H](CCC(N)=O)NC(=O)[C@H](Cc2c[nH]c3ccccc23)NC(=O)[C@H](C(C)C)NC1=O [Compound 26, K(1c)(6c)^†IVWQE(6c)[Y(2-aminoethoxy)][2-Nal][2-Me-Val]E(1c)-[NH-2-(pyridin-3-yl)ethyl]] | 97 | 96 | 101 | 320000 | 95 | 96 |  |  | 
4 | CNC(=O)[C@H](Cc1cccnc1)NC(=O)[C@H](CCN)NC(=O)[C@@H]1CCC(=O)NCCCC[C@H]2C(=O)NCCC(=O)N[C@@H](Cc3c[nH]c4ccccc34)C(=O)N[C@@H](CCC(N)=O)C(=O)N[C@@H](CCC(=O)N2C)C(=O)N[C@@H](Cc2ccc(OCCN)cc2)C(=O)N[C@@H](Cc2ccc3ccccc3c2)C(=O)N[C@@](C)(CC(C)C)C(=O)N1 [Compound 80, [N-Me-Lys](1c)(6c)^†[3-Aminopropanoyl]WQE(6c)[Y(2-aminoethoxy)][2-Nal][2-Me-Leu]E(1c)[Dab][3-(3-Pyridyl)-Ala]-[NHMe]] ([NMeK][βAla]WQE[AEF][2Nal][αMeL]E[Dab][3Pal]-NHMe; lactam 1-9, N-5) | 116 | 89 |  | 17 | 107 | 104 |  | 102 | 
5 | CC[C@H](C)[C@@H]1NC(=O)[C@@H]2CCCCNC(=O)CC[C@@H](C(=O)N[C@@H](Cc3cnc4ccccc4c3)C(=O)N[C@@H](Cc3cccnc3)C(=O)NC)NC(=O)[C@](C)(CC(C)C)NC(=O)[C@H](Cc3ccc4ccccc4c3)NC(=O)[C@H](Cc3ccc(OCCN)cc3)NC(=O)[C@H](CCC(=O)N2)NC(=O)[C@H](CCC(N)=O)NC(=O)[C@H](Cc2c[nH]c3ccccc23)NC(=O)[C@H](C(C)C)NC1=O [Compound 71, K(1c)(6c)^†IVWQE(6c)[Y(2-aminoethoxy)][2-Nal][2-Me-Leu]E(1c)[3-(3-Quinolinyl)-Ala][3-(3-Pyridyl)-Ala]-[NHMe]] | 55 |  | 100 | 84 | 100 | 100 | 6 |  | 6

Continued by falling IC50 (human IL-23R), values first:

Row | remaining at 1 h, 10 µM [1] [%] | remaining at 4 h, 10 µM [1, 3] [%] | % displacement (hIL-23R NIuc) (human IL-23R) [%] | IC50 (human IL-23R) [pM] | remaining at 1 h, 10 µM [2] [%] | remaining at 4 h, 10 µM [2] [%] | remaining at 4 h, 10 µM [1, 4] [%] | Emax (human IL-23R) [%] | SIF (% remaining 4 h) [1] [%] | Compound
6 | 91 |  |  | 80000 | 110 | 108 | 102 | 100 |  | CNC(=O)[C@H](Cc1cccnc1)NC(=O)[C@H](CCN)NC(=O)[C@@H]1CCC(=O)NCCCC[C@@H]2NC(=O)CC[C@H](NC(=O)[C@H](CCC(N)=O)NC(=O)[C@H](Cc3c[nH]c4ccccc34)NC2=O)C(=O)N[C@@H](Cc2ccc(OCCN)cc2)C(=O)N[C@@H](Cc2ccc3ccccc3c2)C(=O)N[C@@](C)(CC(C)C)C(=O)N1 [Compound 43, K(1c)(6c)^†WQE(6c)[Y(2-aminoethoxy)][2-Nal][2-Me-Leu]E(1c)[Dab][3-(3-Pyridyl)-Ala]-[NHMe]] (KWQE[AEF][2Nal][αMeL]E[Dab][3Pal]-NHMe; lactam 1-8, N-4)
7 | 93 |  |  | 11000 | 102 | 90 | 86 | 99 | 86 | CC[C@H](C)[C@@H]1NC(=O)[C@@H]2CCCCNC(=O)CC[C@@H](C(=O)NCCCCC(=O)N[C@@H](Cc3cccnc3)C(=O)NC)NC(=O)[C@](C)(CC(C)C)NC(=O)[C@H](Cc3ccc4ccccc4c3)NC(=O)[C@H](Cc3ccc(OCCN)cc3)NC(=O)[C@H](CCC(=O)N2)NC(=O)[C@H](CCC(N)=O)NC(=O)[C@H](Cc2c[nH]c3ccccc23)NC(=O)[C@H](C(C)C)NC1=O [Compound 64, K(1c)(6c)^†IVWQE(6c)[Y(2-aminoethoxy)][2-Nal][2-Me-Leu]E(1c)[5-Aminopentanoyl][3-(3-Pyridyl)-Ala]-[NHMe]]
8 | 103 | 105 |  | 30 | 105 | 105 |  | 91 |  | CC[C@H](C)[C@H]1CC(=O)N[C@@H](Cc2c[nH]c3ccccc23)C(=O)N[C@@H](CCC(N)=O)C(=O)N[C@H]2CCC(=O)N[C@@H](CCCCNC(=O)CC[C@@H](C(=O)N[C@@H](CCN)C(=O)N[C@@H](Cc3cccnc3)C(=O)NC)NC(=O)[C@](C)(CC(C)C)NC(=O)[C@H](Cc3ccc4ccccc4c3)NC(=O)[C@H](Cc3ccc(OCCN)cc3)NC2=O)C(=O)N1 [Compound 96, K(1c)(6c)^†[beta-hlle]WQE(6c)[Y(2-aminoethoxy)][2-Nal][2-Me-Leu]E(1c)[Dab][3-(3-Pyridyl)-Ala]-[NHMe]]
9 | 96 | 79 |  | 17 | 102 | 92 |  | 101 |  | CC[C@H](C)[C@@H]1NC(=O)[C@@H]2CCCCNC(=O)CC[C@@H](C(=O)N[C@@H](CCN)C(=O)N[C@@H](Cc3cccnc3)C(=O)NC)NC(=O)[C@](C)(CC(C)C)NC(=O)[C@H](Cc3ccc4ccccc4c3)NC(=O)[C@H](Cc3ccc(OCCN)cc3)NC(=O)[C@H](CCC(=O)N2C)NC(=O)[C@H](CCC(N)=O)NC(=O)[C@H](Cc2c[nH]c3ccccc23)NC(=O)[C@H](C(C)C)NC1=O [Compound 75, [N-Me-Lys](1c)(6c)^†IVWQE(6c)[Y(2-aminoethoxy)][2-Nal][2-Me-Leu]E(1c)[Dab][3-(3-Pyridyl)-Ala]-[NHMe]]
